Values quoted from earlier work in patent US9200991B2, “Sorptive extraction layer for immobilized liquid extraction” (Tecan Trading AG, priority 2013, dated 2015).

In the case of `CC(C)Cc1ccc(C(C)C(=O)O)cc1` (stereo not shown) [Ibuprofen], the “reported logP” value is listed as “approximately 3.8”.
